“Also recorded” adds a separate entry of the source.
How the values were obtained:
[1] = test system: MST1; assay: Proteolysis of in vitro translated 35S-methionine labelled MST1 by C2C12 lysates; assay type: biochemical, human; conditions: 35S-labelled MST1 incubated with lysates of inhibitor-treated C2C12 cells
Experimental: Transfection Assays. The complete open reading frame of the human MST1, [Genbank Accession No. gi|1117790] obtained from a clone bank collection (Stratagene) was inserted into the expression vector pcDNA3.1 Myc/His (Invitrogen). A constitutively active MST1 (MST1-act) was prepared as previously described (Megeney, L. A., et al., (1996) Genes Dev 10, 1173-1183). The integrity of both MST1 and MST1-act were confirmed by sequencing. The kinase activity of these protein products were verified by transient transfection into COS1 cells followed by immunoprecipitation and kinase analysis using Histone-H1 as the target substrate (see below). Transfections with MST1 and MST1-act into both COS1 and primary myoblasts were performed using Lipofectamine Plus (Gibco) as directed in the manufacturer's instructions.
In vitro translation and MST1 proteolysis. MST1-pcDNA3.1 Myc/His was in vitro transcribed and translated using a TnT T7 Coupled Wheat Germ Extract System (Promega). The labelling efficiency was verified by SDS-PAGE, Coomassie-staining and autoradiography. […] The proteolytic cleavage of MST1 was assessed by SDS-PAGE and autoradiography.
One kinase that was altered in activity co-migrated with a predicted pI (5.2) and molecular weight (36 kDa) consistent with Mammalian Sterile Twenty-like kinase (MST1). […]

[2] = test system: PARP cleavage; assay: PARP cleavage by Western blot in differentiating C2C12 myoblasts; assay type: cell-based, mouse; conditions: C2C12, treated vs untreated
Experimental: Protein isolation, immunoblot analyses and immunocytochemistry. Cells from C2C12 and primary myoblast cultures were washed with ice-cold PBS and lysed on ice for 45 minutes in modified-RIPA buffer containing 20 mM NaF, 5 mM Na3VO4 and 10 μg/ml each of aprotinin, leupeptin, pepstatin and PMSF. Total protein was measured using the BCA protein assay (Pierce). Immunoblot analyses were performed as described (Creasy, C. L., & Chernoff, J. (1995) J. Biol. Chem. 270, 21695-21700) using antibodies for MST1, MKK6, p38γ, and p38α (Upstate), p38 and MEF2C (Cell Signaling Technologies), myogenin F5D and myosin heavy chain MF20 mAb (Developmental Hybridoma Bank), and active caspase-3 (Biovision).
Cells were fixed after 0, 2 and 4 days of differentiation and stained with the myosin heavy chain antibody MF20. […] In contrast, differentiation was more evident in cells that were incubated with caspase-8 inhibitor, z-LETD.fmk (FIG. 2B bottom panel, C).

[3] = test system: clonally-derived CD1 neurospheres; assay: Neurite extensions / morphology of differentiating neurospheres; assay type: cell-based, mouse; conditions: differentiation media up to 5 d, 2.0 μM inhibitor, vs DMSO
Experimental: Neurospheres were sub-cultured no more than once per collection. The differentiation of neurospheres was initated by plating spheres on poly-L-ornithine coated plates in NeuroCult Differentiation Medium in the absence of bFGF, as per manufacturer's instructions. […] All cultures received fresh media and inhibitor every 24 h for the duration of the experiment. Neurospheres from caspase 3 null embryos (Fernando, P., et al., (2002) Proc Natl Acad Sci USA 99, 11025-11030) were cultured as described above.
Immunocytochemistry: Neurospheres were collected at selected time points, fixed in 4% paraformaldehyde and prepared for immunostaining as previously described (Fernando, P., et al., (2002) Proc Natl Acad Sci USA 99, 11025-11030)). The primary antibody concentrations for anti-nestin, -GFAP, -MBP and -active caspase 3 (BioVision, USA) were titrated on wildtype CD1 neurospheres prior to their experimental use. These antibodies were visualized by counterstaining with either FITC or Cy3 conjugated secondary antibodies (Chemicon USA). Nuclei were localized with 4′,6-Diamidino-2 phenylindole (DAPI) (Sigma, USA). Cells were visualized using either an Axiovert 100 for transmission microscopy or Axioplan 2 for fluorescent microscopy (Zeiss, Germany) at selected magnifications. Captured images were processed using AxioVision Viewer 3.0 software.
Quantitation of Neurite Extensions: Neurites from differentiating neurospheres were estimated from a total of 6-8 neurospheres per condition over three independent experiments. To quantitated neuritis, the average diameter of an individual neurosphere was estimated from the vertical and horizontal distance. The number of extensions leaving the neurosphere body were then counted and an ratio of neurosphere extensions:average neurosphere diameter was calculated for each. All measurements including neurosphere diameter were evaluated using Scion Image.

SMILES: COC(=O)CC[C@H](NC(=O)[C@H](CC(=O)OC)NC(=O)OCc1ccccc1)C(=O)N[C@H](C(=O)N[C@@H](CC(=O)OC)C(=O)CF)C(C)C [z-DEVD.fmk]
- 36 kDa MST1 cleavage fragment [1]: not apparent
- 36 kDa MST1 cleavage fragment ([1]; listed as caspase-3 inhibitor): absent in caspase-3 inhibited samples
- PARP cleavage products ([2]; listed as Z-DEVD.fmk): Comparable levels of PARP cleavage
- PARP cleavage products ([2]; listed as z-DEVD): accumulated to a similar degree
- neurite extensions / morphological changes [3]: dramatic reduction in the formation of these projections; also recorded: absent

Source: patent publication US20060013804A1, “Modulation of stem cell differentiation by modulation of caspase-3 activity” (Ottawa Health Research Institute, priority 2002, published 2006)
